These results are taken from patent publication US20240408216A1, “PROTEIN INHIBITOR OR DEGRADING AGENT, PHARMACEUTICAL COMPOSITION CONTAINING SAME AND PHARMACEUTICAL USE” (JING MEDICINE TECHNOLOGY (SHANGHAI) LTD., priority 2021, published 2024).

Read-outs that look alike come from different tables or passages of the source.

In experiment [1] the test system is A431. Kind of experiment: Cell proliferation IC50 assay (Cell Titer GLO), A431 cells. The format is cell-based. The settings on record: Homo sapiens, A-431, A431, 72 h, read-out: A431 IC50. A digest of the protocol: (§1)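 Cells plated at 2000-4000 per well, next day given serially diluted compound, then grown 72 h at 37 °C, 5% CO2. Viability by CellTiter-Glo luminescence versus DMSO control; IC50 from growth-inhibition curves.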
On the technique in general: In ATP-based viability assays light output follows the ATP content of the culture.

Experiment [2] deals with BaF3 (EGFR L858R/T790M/C797S). Briefly: Cell proliferation IC50 assay (Cell Titer GLO), BaF3 LTC cells. It counts as cell-based. The settings on record: Mus musculus, Ba/F3 EGFR. The method in brief: as §1
The subject of experiment [3] is BaF3 (EGFR WT). Kind of experiment: Cell proliferation IC50 assay (Cell Titer GLO), BaF3 WT cells. It counts as cell-based. To be noted: Mus musculus, Ba/F3 EGFR, 72 h. A digest of the protocol: as §1
In experiment [4] the test system is BaF3 patent. Kind of experiment: Cell proliferation IC50 assay (Cell Titer GLO), BaF3 parental cells. It counts as cell-based. To be noted: Mus musculus. As to the method: IC50 of compounds in the present invention was determined by Cell Titer GLO reagent from Promega. The procedures are as follows:
Tumor cells were cultured in specified medium in an incubator at 37° C. and 5% CO2. The cells were passaged periodically. Cells at the logarithmic growth phase were collected for plating at a density of 2000-4000 cells/well. The next day, the compounds of the present invention were serially diluted and added to the cells, with DMSO being the negative control and the culture media without cells being the blank control. The plate was incubated in the incubator for 72 h. The cell viability assay was performed by adding the detection reagents to the cell culture media according to Cell Titer GLO reagent instructions and detecting luminescent signals on an EnVision microplate reader (PerkinElmer).
Inhibition of cell growth by the compounds of the present invention was plotted by Prism Graphpad software for statistically calculating the IC50 of the compound of the present invention.

Experiment [5] has as its system BaF3 (EGFR Del19/T790M/C797S). Briefly: Cell proliferation IC50 assay (Cell Titer GLO), BaF3 DTC cells. The format is cell-based. To be noted: Mus musculus, Ba/F3 EGFR-Del19/T790M/C797S, Table 5, 72 h. The method in brief: as §1
The target in experiment [6] is T1, BaF3 (EGFR Del19/C797S) (Homo sapiens, UniProt P00533, C797S, cells depend on it, form not given).
T1 construct: BaF3 (EGFR Del19/C797S)|DC|RPMI1640 + 10% FBS
T1 sequence (P00533 with tags, fused parts or gaps DEL746-750/C797S, form open): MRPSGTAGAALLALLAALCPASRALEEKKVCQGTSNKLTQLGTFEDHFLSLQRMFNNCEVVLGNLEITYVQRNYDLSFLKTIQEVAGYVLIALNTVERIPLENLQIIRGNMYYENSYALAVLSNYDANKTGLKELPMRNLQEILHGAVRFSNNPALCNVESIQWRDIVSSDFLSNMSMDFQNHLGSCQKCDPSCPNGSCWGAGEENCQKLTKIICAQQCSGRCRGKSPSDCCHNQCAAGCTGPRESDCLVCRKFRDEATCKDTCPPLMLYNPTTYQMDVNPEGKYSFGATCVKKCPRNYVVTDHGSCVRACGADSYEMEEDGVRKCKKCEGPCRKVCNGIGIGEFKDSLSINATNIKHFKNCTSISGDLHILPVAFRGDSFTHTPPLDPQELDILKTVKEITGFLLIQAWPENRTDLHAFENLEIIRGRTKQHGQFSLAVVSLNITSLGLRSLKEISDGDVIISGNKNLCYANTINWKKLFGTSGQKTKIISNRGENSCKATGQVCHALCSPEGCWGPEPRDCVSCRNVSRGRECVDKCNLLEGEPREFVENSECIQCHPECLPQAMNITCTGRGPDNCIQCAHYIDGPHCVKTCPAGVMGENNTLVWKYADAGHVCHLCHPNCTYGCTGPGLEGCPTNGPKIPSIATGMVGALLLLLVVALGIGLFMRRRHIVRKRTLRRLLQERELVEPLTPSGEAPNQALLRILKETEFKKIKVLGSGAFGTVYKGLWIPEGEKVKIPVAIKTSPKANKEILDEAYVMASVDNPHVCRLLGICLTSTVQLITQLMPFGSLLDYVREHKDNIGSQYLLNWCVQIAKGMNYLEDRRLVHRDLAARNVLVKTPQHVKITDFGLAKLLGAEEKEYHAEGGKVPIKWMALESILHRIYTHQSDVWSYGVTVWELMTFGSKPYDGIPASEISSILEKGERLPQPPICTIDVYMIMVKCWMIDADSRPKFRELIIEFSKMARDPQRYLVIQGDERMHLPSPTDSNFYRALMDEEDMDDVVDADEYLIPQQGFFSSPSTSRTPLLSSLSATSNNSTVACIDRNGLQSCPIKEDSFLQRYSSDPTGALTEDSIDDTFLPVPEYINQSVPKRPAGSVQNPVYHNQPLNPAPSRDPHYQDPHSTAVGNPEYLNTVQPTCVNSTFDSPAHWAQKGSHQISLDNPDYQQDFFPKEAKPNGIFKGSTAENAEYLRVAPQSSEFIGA
Briefly: Cell proliferation IC50 assay (Cell Titer GLO), BaF3 DC cells. It counts as cell-based, mouse. The settings on record: Table 6, 72 h. The method in brief: as §1

As usually defined, the IC50 is the point on the concentration scale where inhibition reaches its midpoint. Regarding `COc1cc(N2CCC(N3CCC4(CCC(Oc5cccc6c5CN(C5CCC(=O)NC5=O)C6=O)CC4)C3)CC2)c(C2CC2)cc1Nc1ncc(Cl)c(Nc2ccccc2P(C)(C)=O)n1` (stereo not shown) [Example E27], the IC50 came to 1190 nM in experiment [1] (Table 5); 29.8 nM in experiment [2] (Table 5, 72 h); 937 nM in experiment [3] (Table 5, 10 ng/ml EGF); 375 nM in experiment [4] (Table 5, 10 ng/ml mIL3, 72 h); 3.3 nM in experiment [5].

As for `CCc1cc(Nc2ncc(Cl)c(Nc3ccccc3P(C)(C)=O)n2)c(OC)cc1N1CCC2(CCN(CCCC#Cc3ccc4c(c3)CN(C3CCC(=O)NC3=O)C4=O)CC2)CC1` (stereo not shown) [Example E16], the IC50 in experiment [1] (Table 5) is greater than 4000 nM; in experiment [2] (Table 5, 72 h), 348 nM; in experiment [3] (Table 5, 10 ng/ml EGF) it was greater than 4000 nM; in experiment [4] (Table 5, 10 ng/ml mIL3, 72 h), greater than 4000 nM; in experiment [5] it was 55.6 nM.

Turning to `CP(C)(=O)c1ccccc1Nc1nc(Nc2ccc(N3CCC4(CCN(CCCC#Cc5cccc6c5CN(C5CCC(=O)NC5=O)C6=O)CC4)CC3)c(Cl)c2)ncc1Cl` (stereo not shown) [Example E18], the IC50 in experiment [1] (Table 5) amounted to 2180 nM; in experiment [2] (Table 5, 72 h) it was 266 nM; in experiment [3] (Table 5, 10 ng/ml EGF) it was 724 nM; in experiment [4] (Table 5, 10 ng/ml mIL3, 72 h) it was 786 nM; in experiment [5], 30.9 nM.

As to `CN(CCCC#Cc1cccc2c1CN(C1CCC(=O)NC1=O)C2=O)C1CC2(CCN(c3ccc(Nc4ncc(Cl)c(Nc5ccccc5P(C)(C)=O)n4)cc3Cl)CC2)C1` (stereo not shown) [Example E14], the IC50 was 377 nM in experiment [1] (Table 5); 55.2 nM in experiment [2] (Table 5, 72 h); 69 nM in experiment [3] (Table 5, 10 ng/ml EGF); 84.2 nM in experiment [4] (Table 5, 10 ng/ml mIL3, 72 h); 7.8 nM in experiment [5].

For the molecule `COc1cc(N2CCC(N3CCC4(CCC(Oc5cccc6c5CN(C5CCC(=O)NC5=O)C6=O)CC4)C3)CC2)ccc1Nc1ncc(Cl)c(Nc2ccccc2P(C)(C)=O)n1` (stereo not shown) [Example C-6, reference compound], the 50% inhibitory concentration (IC50) amounted to 342 nM in experiment [1] (Table 5); 33.6 nM in experiment [2] (Table 5, 72 h); 79.2 nM in experiment [3] (Table 5, 10 ng/ml EGF); 93 nM in experiment [4] (Table 5, 10 ng/ml mIL3, 72 h); 7.8 nM in experiment [5].

With `COc1cc(N2CCC3(CCN(CCCC#Cc4cccc5c4CN(C4CCC(=O)NC4=O)C5=O)CC3)CC2)c(Cl)cc1Nc1ncc(Cl)c(Nc2ccccc2P(C)(C)=O)n1` (stereo not shown) [Example E11], the IC50 in experiment [1] (Table 5) is greater than 4000 nM; in experiment [2] (Table 5, 72 h) it was 61.3 nM; in experiment [3] (Table 5, 10 ng/ml EGF) it was 236 nM; in experiment [4] (Table 5, 10 ng/ml mIL3, 72 h) it was 147 nM; in experiment [5] it was 17.1 nM.

Regarding `CCc1cc(Nc2ncc(Cl)c(Nc3ccccc3P(C)(C)=O)n2)c(OC)cc1N1CCC(N2CCC3(CCC(=Cc4cccc5c4CN(C4CCC(=O)NC4=O)C5=O)CC3)C2)CC1` (stereo not shown) [Example E40], the IC50 in experiment [1] (Table 6) was 1210 nM; in experiment [2] (Table 6, 72 h), 17.5 nM; in experiment [3] (Table 6, 10 ng/ml EGF) it was 260 nM; in experiment [4] (Table 6, 10 ng/ml mIL3, 72 h), 131 nM; in experiment [6], 4.9 nM.

For the molecule `CCc1cc(Nc2ncc(Br)c(Nc3ccc4c(c3P(C)(C)=O)OCCO4)n2)c(OC)cc1N1CCC(N2CCN(CCC#Cc3cccc4c3CN(C3CCC(=O)NC3=O)C4=O)CC2)CC1` (stereo not shown) [Example E22], the half-inhibitory concentration (IC50) in experiment [1] (Table 6) came to 1050 nM; in experiment [2] (Table 6, 72 h) it was 34.1 nM; in experiment [3] (Table 6, 10 ng/ml EGF), 275 nM; in experiment [4] (Table 6, 10 ng/ml mIL3, 72 h) it was 385 nM; in experiment [6], 4.1 nM.

For `COc1cc(N2CCC(N3CCN(CCC#Cc4cccc5c4CN(C4CCC(=O)NC4=O)C5=O)CC3)CC2)c(C)cc1Nc1ncc(Cl)c(Nc2ccccc2P(C)(C)=O)n1` (stereo not shown) [Example E3], the half-inhibitory concentration (IC50) in experiment [2] (Table 5, 72 h) was determined as 46.6 nM; in experiment [3] (Table 5, 10 ng/ml EGF), 287 nM; in experiment [4] (Table 5, 10 ng/ml mIL3, 72 h) it was 521 nM; in experiment [5] it was 14.3 nM.

For `COc1cc(N2CCC(N3CCN(CCCc4cccc5c4CN(C4CCC(=O)NC4=O)C5=O)CC3)CC2)ccc1Nc1ncc(Cl)c(Nc2ccccc2P(C)(C)=O)n1` (stereo not shown) [Example C-4, reference compound], the half-inhibitory concentration (IC50) in experiment [2] (Table 5, 72 h) was 70.7 nM; in experiment [4] (Table 5, 10 ng/ml mIL3, 72 h), 142 nM; in experiment [5], 41.7 nM.

On to `COc1cc(N2CCC(N3CCN(CCC#Cc4cccc5c4CN(C4CCC(=O)NC4=O)C5=O)CC3)CC2)ncc1Nc1ncc(Cl)c(Nc2ccccc2P(C)(C)=O)n1` (stereo not shown) [Example E71], for which the concentration for half-maximal inhibition (IC50) in experiment [1] (Table 6) is greater than 4000 nM; in experiment [2] (Table 6, 72 h), 62.3 nM; in experiment [3] (Table 6, 10 ng/ml EGF), 1550 nM; in experiment [4] (Table 6, 10 ng/ml mIL3, 72 h), 719 nM; in experiment [6] it was 54.4 nM.
